Measured values taken from patent US7365066B2, “Pyrazolopyridine derivatives as pharmaceutical agents” (Eli Lilly and Company, priority 2002, dated 2008).

Assays:
p38α/SAPK2α = biological target: T1, p38α/SAPK2α (Homo sapiens, UniProt Q16539); test: p38α in vitro kinase assay; format: biochemical; conditions: 5 nM p38α, 62.5 uM EGFR substrate, 100 uM ATP, 30° C. for 40 min
T1 construct: purchased Upstate Biotechnology 14-251
Protocol: Active p38α/SAPK2α was purchased from Upstate Biotechnology (cat#14-251). A known p38α substrate from EGFR was used in the assay (Young, et al. (1997) JBC 272:12116-12121).
Reactions were performed in 1× kinase buffer (25 mM Tris-HCl pH 7.5, 5 mM β-glycerophosphate, 2 mM DTT, 0.1 mM Na3VO4, 10 mM MgCl2, 1 uM Microcystin) with 5 nM p38α, 62.5 uM substrate, 40 uM to 0.2 nM compound dilution series in 1×KB/16% DMSO (final 4% DMSO concentration). Reactions were started by addition of 100 uM ATP (final concentration) with 1 uCi ^33P-γ-ATP in 1×KB and incubated at 30° C. for 40 min. Reactions were stopped with H3PO4 and quantitated on Millipore PH phosphocellulose filter plates by liquid scintillation counting on a MicroBeta JET.

[1] = biological target: T2, TGF-beta Type II Receptor Kinase (RII WT) (Homo sapiens, UniProt P37173); test: TGF-β Type II receptor (RII WT) in vitro kinase reaction; format: biochemical; conditions: RII WT kinase domain, 4 uM ATP, 30° C. for 40 min; read-out: IC50, inhibition of TGF-beta Type II Receptor Kinase
T2 construct: The 6×-HIS tagged cytoplasmic kinase domain of each receptor was expressed and purified from Sf9 insect cell lysates; 6xHis; made in house; host or cells: Sf9 insect cells
T2 sequence (P37173 188-567 limits assumed): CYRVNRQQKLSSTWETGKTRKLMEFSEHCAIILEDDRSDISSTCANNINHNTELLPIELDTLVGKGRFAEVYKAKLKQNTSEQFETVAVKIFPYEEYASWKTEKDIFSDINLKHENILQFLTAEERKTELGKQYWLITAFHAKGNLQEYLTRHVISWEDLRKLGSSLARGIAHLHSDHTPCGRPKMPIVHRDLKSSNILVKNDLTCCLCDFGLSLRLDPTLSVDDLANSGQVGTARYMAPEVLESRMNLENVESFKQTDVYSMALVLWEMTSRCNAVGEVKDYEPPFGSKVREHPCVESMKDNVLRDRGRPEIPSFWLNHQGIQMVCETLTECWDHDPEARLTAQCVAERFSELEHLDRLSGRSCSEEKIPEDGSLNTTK
Protocol: (§1) For TGF-β Type I (RIT204D) and Type II (RII WT) Receptor Kinases:
(§2) The 6×-HIS tagged cytoplasmic kinase domain of each receptor was expressed and purified from Sf9 insect cell lysates as briefly described below:
(§3) Cell pellets after 48-72 hrs of infection were lysed in lysis buffer (LB: 50 mM Tris pH 7.5, 150 mM NaCl, 50 mM NaF, 0.5% NP40 with freshly added 20 mM β-mercaptoethanol, 10 mM imidazole, 1 mM PMSF, 1×EDTA-free Complete Protease Inhibitor (Boehringer Mannheim).
(§4) Cell lysates were clarified by centrifugation and 0.45 uM filtered prior to purification by Ni/NTA affinity chromatography (Qiagen).
(§5) Equilibrate with 10 CV of LB, load sample, wash with 10 CV RIPA buffer (50 mM Tris pH 7.5, 150 mM NaCl, 1% NP40, 1 mM EDTA, 0.25% sodium deoxycholate, added fresh 20 mM β-mercaptoethanol, 1 mM PMSF), wash with 10 CV LB, wash with 10 CV 1× KB (50 mM Tris pH 7.5, 150 mM NaCl, 4 mM MgCl2, 1 mM NaF, 2 mM βmercaptoethanol), elute with a linear gradient of 1× KB containing 200 mM Imidazole.
(§6) Both enzymes were approximately 90% pure and had autophosphorylation activity.
(§7) Reactions: 170-200 nM enzyme in 1× KB, compound dilution series in 1× KB/16% DMSO (20 uM to […] final concentration with 4% DMSO final concentration), reactions started by adding ATP mix (4 uM ATP/1 uCi ^33P-γ-ATP final concentrations) in 1× KB.
(§8) Reactions were incubated at 30° C. for 1 hr RIT204D or 40 min for RII WT. Reactions were stopped and quantitated using standard TCA/BSA precipitation onto Millipore FB glass fiber filter plates and by liquid scintillation counting on a MicroBeta JET.

[2] = biological target: T3, TGF-beta Type I Receptor Kinase (RIT204D) (Homo sapiens, UniProt P36897, T204D); test: TGF-β Type I receptor (RIT204D) in vitro kinase reaction; format: biochemical; conditions: RIT204D kinase domain, 4 uM ATP, 30° C. for 1 hr; read-out: IC50, inhibition of TGF-beta Type I Receptor Kinase
T3 construct: The 6×-HIS tagged cytoplasmic kinase domain of each receptor was expressed and purified from Sf9 insect cell lysates; 6xHis; made in house; host or cells: Sf9 insect cells
T3 sequence (P36897 148-503 T204D limits assumed): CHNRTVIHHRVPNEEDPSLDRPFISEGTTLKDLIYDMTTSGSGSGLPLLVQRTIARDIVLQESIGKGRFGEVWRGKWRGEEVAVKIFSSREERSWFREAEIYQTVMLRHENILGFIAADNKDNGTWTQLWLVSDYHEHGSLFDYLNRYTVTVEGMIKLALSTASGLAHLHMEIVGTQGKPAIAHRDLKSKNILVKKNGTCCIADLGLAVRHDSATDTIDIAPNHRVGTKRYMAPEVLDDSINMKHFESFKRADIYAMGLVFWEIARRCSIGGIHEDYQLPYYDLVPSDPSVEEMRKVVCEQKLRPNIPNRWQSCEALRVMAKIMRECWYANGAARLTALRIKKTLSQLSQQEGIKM
Protocol: as §1, §2, §3, §4, §5, §6, §7, §8

[3] = system: TGF-β dependent luciferase production (p3TP-Lux reporter, Mv1Lu C1 cells); test: Mv1Lu p3TP-Lux assay; format: cell-based; conditions: 10 pM TGF-β1, 16-20 hrs, read-out: IC50, inhibition of TGF-beta dependent luciferase production
Source text: A stable Mv1Lu clone (C1) containing the p3TP-Lux reporter was created by standard transfection and puromycin selection protocols. This stable clone was used to screen the example compounds for their ability to inhibit TGF-β dependent luciferase production as briefly described below: • 1. Plated Mv1Lu C1 cells in Wallac™ Black Isoplates. • 2. Allowed cells to adhere overnight. • 3. Removed media and replaced with 0.5% FBS DMEM media. • 4. Added the compound dilution series in 0.5% FBS/DMEM containing 1% DMSO such that the final compound concentration ranged from 20 uM to 0.1 nM and the final DMSO concentration was 0.2%. • 5. Incubated at 37° C./5% CO2 for 2 hrs. • 6. Added 0.5% FBS/DMEM as control or TGF-β1 diluted. in 0.5% FBS/DMEM (final concentration of 10 pM) to the −/+TGF-β wells respectively. • 7. Incubated for 16-20 hrs. at 37° C./5% CO2. • 8. Removed media and rinsed 1× with PBS. • 9. Removed PBS and lysed the cells with 1× Passive. Lysis Buffer (Promega) at room temperature. • 10. Counted relative luciferase activity on the MicroBeta JET by injecting Luciferase Assay Reagent II (PROMEGA).
The use of the above assay in measuring TGF-β responsive activity is described in Wrana, et al. Cell 71: 1003-1014 (1992).

T1 sequence (Q16539 whole entry): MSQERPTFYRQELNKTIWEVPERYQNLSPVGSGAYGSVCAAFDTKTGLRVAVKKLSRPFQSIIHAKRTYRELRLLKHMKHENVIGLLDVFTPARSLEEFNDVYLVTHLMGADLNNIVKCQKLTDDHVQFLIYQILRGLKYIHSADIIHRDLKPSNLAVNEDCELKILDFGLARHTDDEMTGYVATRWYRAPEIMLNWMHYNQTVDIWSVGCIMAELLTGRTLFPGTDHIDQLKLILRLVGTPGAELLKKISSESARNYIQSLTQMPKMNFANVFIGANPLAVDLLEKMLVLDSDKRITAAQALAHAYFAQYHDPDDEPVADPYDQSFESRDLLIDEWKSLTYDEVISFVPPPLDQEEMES

Row | IC50 (p38α/SAPK2α) [nM] | IC50 [1] [nM] | IC50 [2] [nM] | IC50 [3] [nM] | SMILES
1 | 233 |  |  |  | Cc1cccc(-c2nn3ccccc3c2-c2ccnc3cc(C(=O)NCCN(C)C)ccc23)n1 [Example 78, 4-[2-(6-Methyl-pyridin-2-yl)-pyrazolo[1,5-a]pyridin-3-yl]-quinoline-7-carboxylic acid(2-dimethylamino-ethyl)-amide]
2 |  | 20000 | 806 | 487 | c1ccc(-c2nn3ccccc3c2-c2ccncc2)nc1 [Example 53, 3-Pyridin-4-yl-2-pyridin-2-yl-pyrazolo[1,5-a]pyridine]
3 |  | 5100 | 175 | 100 | CCc1cccc(-c2nn3ccccc3c2-c2ccc(F)c3ccccc23)n1 [Example 47, 2-(6-Ethyl-pyridin-2-yl)-3-(4-fluoro-naphthalen-1-yl)-pyrazolo[1,5-a]pyridine]
4 |  | 3170 | 152 | 120 | CCc1cccc(-c2nn3ccccc3c2-c2ccnc3cc(Cl)c(Cl)cc23)n1 [Example 43, 6,7-Dichloro-4-[2-(6-ethyl-pyridin-2-yl)-pyrazolo[1,5-a]pyridin-3-yl]-quinoline]
5 |  | 377 | 102 | 135 | CCCCc1ccc(-c2nn3ccccc3c2-c2ccnc3ccccc23)nc1 [Example 56, 4-[2-(5-Butyl-pyridin-2-yl)-pyrazolo[1,5-a]pyridin-3-yl]-quinoline]
6 | 390 |  |  |  | Cc1cccc(-c2nn3ccccc3c2-c2ccnc3cc(Cl)c(Cl)cc23)n1 [Example 45, 6,7-Dichloro-4-[2-(6-methyl-pyridin-2-yl)-pyrazolo[1,5-a]pyridin-3-yl]-quinoline]
7 | 78 |  |  |  | Cc1cccc(-c2nn3ccccc3c2-c2ccnc3cc(OCCCN(C)C)ccc23)n1 [Example 117, Dimethyl-(3-{4-[2-(6-methyl-pyridin-2-yl)-pyrazolo[1,5-a]pyridin-3-yl]-quinolin-7-yloxy}-propyl)-amine]
